{
  "source": "patent US11072632B2",
  "about": "“Inhibitors of 17β-HSD1, 17β-HSD3 and 17β-HSD10” (UNIVERSITÉ LAVAL, priority 2011, dated 2021)",
  "key": {"17β-HSD2": {"biological_target": "T1, 17β-HSD2 (Homo sapiens, UniProt P37059)", "T1 construct": "expressed in transfected cells", "T1 sequence (P37059 1-387)": "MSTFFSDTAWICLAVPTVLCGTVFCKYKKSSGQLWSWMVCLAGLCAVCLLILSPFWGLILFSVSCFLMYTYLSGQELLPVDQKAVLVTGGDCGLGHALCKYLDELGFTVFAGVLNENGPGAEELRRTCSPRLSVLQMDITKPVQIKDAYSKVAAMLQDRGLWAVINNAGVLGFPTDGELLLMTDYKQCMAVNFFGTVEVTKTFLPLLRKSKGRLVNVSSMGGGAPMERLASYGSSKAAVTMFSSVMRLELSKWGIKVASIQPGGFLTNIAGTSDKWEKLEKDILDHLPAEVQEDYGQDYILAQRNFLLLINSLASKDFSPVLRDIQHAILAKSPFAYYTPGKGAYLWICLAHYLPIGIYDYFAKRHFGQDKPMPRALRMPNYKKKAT", "type": "cell-based", "conditions": "5 nM to 20 μM", "protocol": "Inhibition assays were performed using stable 17β-HSD2 HEK-293 transfected intact cells with 5000 cells per well using 24 well plates (Poirier et al. Mol. Cell. Endocrinol., 2001, 171, 119-128). The cells were incubated for 1 h at 37° C. in 1 mL of MEM medium steroid free with 60 nM C^14 estradiol."}, "[1]": {"test_system": "ovariectomized (OVX) BALB/c mice", "assay": "In vivo estrogenicity assay in OVX mice (uterus, vagina weight)", "parameters": "species or system mouse", "conditions": "7 days; for weight of the uterus: OVX mice, s.c.", "protocol": "Female ovariectomized (OVX) BALB/c mice weighing approximately 20 g were obtained from Charles-River, Inc. (St-Constant, Qc., Canada). The animals were housed 5 per cage. Groups of 5 mice were treated with E1 (0.02 μg in 8% EtOH/92% PG) or 17β-HSD1 inhibitor at 10, 50 and 250 μg (0.1 mL s.c.) daily for 7 days. Animals were killed 24 h after administration of the last dose of compound and uteri and vagina were removed, excised of fat and weighed. Total body weights of mice were also recorded."}, "T-47D cells [2]": {"test_system": "T-47D cells", "assay": "Inhibition of E1-stimulated T-47D cell proliferation", "type": "cell-based, human", "conditions": "control 100%", "protocol": "(§1) Quantification of cell growth was determined by using CellTiter 96®Aqueous Solution Cell Proliferation Assay (Promega, Nepean, ON, Canada) following the manufacturer's instructions. T-47D cells were resuspended with the medium supplemented with insulin (50 ng/mL) and 5% dextran-coated charcoal treated FBS rather than 10% FBS to remove remaining hormones. Aliquots (100 μL) of the cell suspension were seeded in 96-well plates (3000 cells/well). After 48 h, the medium was changed with a new one containing an appropriate concentration of products to be tested and was replaced every 2 days. Cells have grown either in absence or presence of the compounds for 7 days. To determine the proliferative (estrogenic) activity, the estrogen-sensitive T-47D cells were grown in absence (basal cell proliferation was fixed as 100%) or presence of compounds to be tested at 0.5 to 10 μM. The potent estrogen E2 was used as a reference control. […] The cell proliferation without E1±inhibitor (control) was fixed as 100%. To determine the potential antiestrogenic activity of inhibitor Compound V, the T-47D (ER^+) cells were grown in the presence of estrogen E2 (0.1 nM) and pure antiestrogen EM-139 (0.5 μM) or inhibitor Compound V (0.5 μM). The cell proliferation without E2 and tested compounds (control) were fixed as 100%."}, "T-47D tumors": {"test_system": "T-47D tumors", "assay": "Inhibition of E1-stimulated T-47D tumor growth in nude OVX mice (xenograft)", "type": "in vivo, mouse", "protocol": "Female OVX BALB/c athymic nude mice weighing approximately 20 g were obtained from Charles-River, Inc. (St-Constant, Qc., Canada). The animals were housed 5 per cage. […] T-47D tumor growth was stimulated using 0.1 μg of E1 s.c. per mouse per day for 15 days. From day 16, animals with tumors were randomized in function of tumor volume and separated into three groups. Group 1 (control mice) was treated s.c. with 100 μL of vehicle alone (8% EtOH/92% PG) per mouse per day. Group 2 (E1 0.1 μg) was treated with E1 (0.1 μg/day, s.c. per mouse) during 32 days. Group 3 (E1 0.1 μg+Compound V 250 μg) was treated with E1 (0.1 μg/day) and Compound V (250 μg/day) per mouse in a combined s.c. injection for 32 days. The mice were weighed at start and volumes of tumors were determined by external caliper twice a week and the greatest longitudinal diameter (length) and the greatest transverse diameter (width) were determined. Tumor volume based on caliper measurements was calculated by the modified ellipsoidal formula: Tumor volume=½(length×width^2) (Jensen M M, Jorgensen J T, Binderup T, Kjaer A. Tumor volume in subcutaneous mouse xenografts measured by microCT is more accurate and reproducible than determined by 18F-FDG-microPET or external caliper. BMC Med Imaging 2008; 8:16). At the end of the studies the mice were terminally anaesthetized, final body weights and tumor sizes were determined. Uteri and vagina were removed, excised of fat and weighed (Day J M, Foster P A, Tutill H J, Parsons M F, Newman S P, Chander S K, et al. 17beta-hydroxysteroid dehydrogenase type 1, and not type 12, is a target for endocrine therapy of hormone-dependent breast cancer. Int J Cancer 2008; 122:1931-40; Husen B, Huhtinen K, Poutanen M, Kangas L, Messinger J, Thole H. Evaluation of inhibitors for 17beta-hydroxysteroid dehydrogenase type 1 in vivo in immunodeficient mice inoculated with MCF-7 cells stably expressing the recombinant human enzyme. Mol Cell Endocrinol 2006; 248:109-13; Husen B, Huhtinen K, Saloniemi T, Messinger J, Thole H H, Poutanen M: Human hydroxysteroid (17-beta) dehydrogenase 1 expression enhances estrogen sensitivity of MCF-7 breast cancer cell xenografts. Endocrinology 2006; 147:5333-9; Messinger J, Hirvela L, Husen B, Kangas L, Koskimies P, Pentikainen O, et al. New inhibitors of 17beta-hydroxysteroid dehydrogenase type 1. Mol Cell Endocrinol 2006; 248:192-8)."}, "T-47D cells [3]": {"test_system": "T-47D cells", "assay": "Antiestrogenic activity, E2-induced T-47D proliferation", "type": "cell-based, human", "conditions": "E2 0.1 nM, compound 0.5 μM", "protocol": "as §1"}},
  "note": "Entries after “also recorded” stand apart in the source; their conditions may differ.",
  "data": [
    {"compound": "C[C@]12CC[C@@H]3c4ccc(CCBr)cc4CC[C@H]3[C@@H]1C[C@H](Cc1cccc(C(N)=O)c1)[C@@H]2O", "note": "[Compound V, 3-{[(16β,17β)-3-(2-bromoethyl)-17-hydroxyestra-1(10),2,4-trien-16-yl]methyl}benzamide]", "values": [
      {"measurement": "inhibition of 17β-HSD2 (conversion of E2 to E1)", "setting": "17β-HSD2", "result": "no inhibition; also recorded: did not show any inhibition"},
      {"measurement": "estrogenicity in vivo", "setting": "[1]; 10, 50 and 250 μg/mouse/day", "result": "non-estrogenic in vivo"},
      {"measurement": "weight of the uterus", "setting": "[1]; 10 μg/mouse/day", "result": 25, "unit": "mg"},
      {"measurement": "weight of the uterus", "setting": "[1]; 50 μg/mouse/day", "result": 24, "unit": "mg"},
      {"measurement": "weight of the uterus", "setting": "[1]; 250 μg/mouse/day", "result": 23, "unit": "mg"},
      {"measurement": "cell growth, E1-induced", "setting": "T-47D cells [2]; E1 0.1 nM + inhibitor 2.5 μM", "result": 156, "unit": "%"},
      {"measurement": "cell growth, E1-induced", "setting": "T-47D cells [2]; E1 0.1 nM + inhibitor 5 μM", "result": 125, "unit": "%"},
      {"measurement": "toxicity", "setting": "T-47D tumors; 250 μg/day/mouse (s.c.), 32 days", "result": "no apparent toxicity"},
      {"measurement": "effect on mouse weight", "setting": "T-47D tumors; 32-day treatment period", "result": "no effect"},
      {"measurement": "growth of E1-stimulated tumors inhibited (%)", "setting": "T-47D tumors; E1 0.1 μg/day + Compound V 250 μg/day s.c., 32 days", "result": 74, "unit": "%"},
      {"measurement": "effect on E1-stimulated uterine and vaginal weight", "setting": "T-47D tumors; E1 0.1 μg/day + Compound V 250 μg/day, 32 days", "result": "had no effect on the E1-stimulated uterine and vaginal weight increase"},
      {"measurement": "antiestrogenic activity (reversal of E2-induced proliferation)", "setting": "T-47D cells [3]", "result": "does not reverse the proliferative effect"}
    ]}
  ]
}
